Measured values taken from patent publication US9682995B2, “Amino-substituted isothiazoles” (BAYER PHARMA AKTIENGESELLSCHAFT, priority 2013, dated 2017).

What was measured:
[1] = tested on: spindle assembly checkpoint; assay: SAC-Formation - Nocodazole-Induced Assay; assay type: cell-based; details: Homo sapiens; HeLa cells, nocodazole 0.1 μg/ml, 24 h, phosphorylated histone H3 on serine 10
Summary of the method: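 HeLa cells were given nocodazole at 0.1 μg/ml final together with compounds (0.005–20 μM, 0.5% DMSO) for 24 h at 37° C. Mitotic cells were counted by phospho-histone H3 Ser10 immunostaining, with cell number from HOECHST 33342, by high-content imaging. The loss of mitotic cells was fitted with a four-parameter Hill equation.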

HeLa = assay: Proliferation assay (crystal violet), HeLa; assay type: cell-based; details: Homo sapiens, 96 h, 4 days, read-out: Inhibition of proliferation IC50 HeLa
Summary of the method: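 Tumour cells seeded at 1000–5000 cells/well in medium with 10% FCS, dosed after 24 h at 0.001–10 μM (0.5% DMSO final) for 4 days. Cell number read by crystal-violet staining after glutaraldehyde fixation (A595), normalised to zero-point plate (0%) and untreated cells (100%); IC50 from 4-parameter fit.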

Compound	IC50 [1] [nM]	IC50 (HeLa) [nM]
COc1ccc(NC(=O)c2c(C)nsc2Nc2cnc3ccccc3n2)cn1 [Example 94, N-(6-Methoxypyridin-3-yl)-3-methyl-5-(quinoxalin-2-ylamino)-1,2-thiazole-4-carboxamide]	81	10000
Cc1nsc(Nc2cnc(Cl)cn2)c1C(=O)Nc1ccc(F)c(F)c1 [Example 74, 5-[(5-Chloropyrazin-2-yl)amino]-N-(3,4-difluorophenyl)-3-methyl-1,2-thiazole-4-carboxamide]	29	260
CCNC(=O)c1cncc(Nc2snc(C)c2C(=O)Nc2ccc(F)c(F)c2)n1 [Example 73, 6-({4-[(3,4-Difluorophenyl)carbamoyl]-3-methyl-1,2-thiazol-5-yl}amino)-N-ethylpyrazine-2-carboxamide]	230	1200
CCc1ccccc1NC(=O)c1c(C)nsc1Nc1cnc2cc(Cl)ccc2n1 [Example 86, 5-[(6-Chloroquinoxalin-2-yl)amino]-N-(2-ethylphenyl)-3-methyl-1,2-thiazole-4-carboxamide]	530	1000
COc1ccc2nc(Nc3snc(C)c3C(=O)Nc3ccc(OC)nc3)sc2c1 [Example 87, 5-[(6-Methoxy-1,3-benzothiazol-2-yl)amino]-N-(6-methoxypyridin-3-yl)-3-methyl-1,2-thiazole-4-carboxamide]	590	2800
CCc1ccccc1NC(=O)c1c(C)nsc1Nc1ncccc1C(F)(F)F [Example 3, N-(2-Ethylphenyl)-3-methyl-5-{[3-(trifluoromethyl)pyridin-2-yl]amino}-1,2-thiazole-4-carboxamide]	3000	7700
Cc1nsc(Nc2cnccn2)c1C(=O)Nc1ccc(F)c(F)c1 [Example 65, N-(3,4-Difluorophenyl)-3-methyl-5-(pyrazin-2-ylamino)-1,2-thiazole-4-carboxamide]	210	2800
Cc1nsc(Nc2cnc3cc(C(F)(F)F)ccc3n2)c1C(=O)Nc1ccc(Cl)c(Cl)c1 [Example 61, N-(3,4-Dichlorophenyl)-3-methyl-5-{[6-(trifluoromethyl)quinoxalin-2-yl]amino}-1,2-thiazole-4-carboxamide]	310	7700
CCOC(=O)c1sc(Nc2snc(C)c2C(=O)Nc2ccc(Cl)c(F)c2)nc1C [Example 95, Ethyl 2-({4-[(4-chloro-3-fluoro-phenyl)carbamoyl]-3-methyl-1,2-thiazol-5-yl}amino)-4-methyl-1,3-thiazole-5-carboxylate]	260	1200
Cc1nsc(Nc2cnc3cc(C(F)(F)F)ccc3n2)c1C(=O)Nc1ccc(F)c(F)c1 [Example 60, N-(3,4-Difluorophenyl)-3-methyl-5-{[6-(trifluoromethyl)quinoxalin-2-yl]amino}-1,2-thiazole-4-carboxamide]	40	730
COc1ccc(NC(=O)c2c(C)nsc2Nc2nc3cccnc3s2)cn1 [Example 89, N-(6-Methoxypyridin-3-yl)-3-methyl-5-([1,3]thiazolo[5,4-b]pyridin-2-ylamino)-1,2-thiazole-4-carboxamide]	1400	3600
Cc1nsc(Nc2ccc(C(F)(F)F)nn2)c1C(=O)Nc1ccc(F)c(F)c1 [Example 83, N-(3,4-Difluorophenyl)-3-methyl-5-{[6-(trifluoromethyl)pyridazin-3-yl]amino}-1,2-thiazole-4-carboxamide]	7	920
CNC(=O)c1cnc(Nc2snc(C)c2C(=O)Nc2ccc(F)c(F)c2)cn1 [Example 75, 5-({4-[(3,4-Difluorophenyl)carbamoyl]-3-methyl-1,2-thiazol-5-yl}amino)-N-methylpyrazine-2-carboxamide]	81	1900
Cc1nsc(Nc2nc3c(C(F)(F)F)ccnc3s2)c1C(=O)Nc1ccc(F)c(F)c1 [Example 58, N-(3,4-Difluorophenyl)-3-methyl-5-{[7-(trifluoromethyl)[1,3]thiazolo[5,4-b]pyridin-2-yl]amino}-1,2-thiazole-4-carboxamide]	280	1500
CCc1ccccc1NC(=O)c1c(C)nsc1Nc1cc(C#N)ccn1 [Example 4, 5-[(4-Cyanopyridin-2-yl)amino]-N-(2-ethylphenyl)-3-methyl-1,2-thiazole-4-carboxamide]	730	3200
CCc1cncc(Nc2snc(C)c2C(=O)Nc2ccc(F)c(F)c2)n1 [Example 76, N-(3,4-Difluorophenyl)-5-[(6-ethylpyrazin-2-yl)amino]-3-methyl-1,2-thiazole-4-carboxamide]	52	2600
